Biological target: T1, Caspase-1 (Homo sapiens) (UniProt P29466)
T1 sequence (whole entry): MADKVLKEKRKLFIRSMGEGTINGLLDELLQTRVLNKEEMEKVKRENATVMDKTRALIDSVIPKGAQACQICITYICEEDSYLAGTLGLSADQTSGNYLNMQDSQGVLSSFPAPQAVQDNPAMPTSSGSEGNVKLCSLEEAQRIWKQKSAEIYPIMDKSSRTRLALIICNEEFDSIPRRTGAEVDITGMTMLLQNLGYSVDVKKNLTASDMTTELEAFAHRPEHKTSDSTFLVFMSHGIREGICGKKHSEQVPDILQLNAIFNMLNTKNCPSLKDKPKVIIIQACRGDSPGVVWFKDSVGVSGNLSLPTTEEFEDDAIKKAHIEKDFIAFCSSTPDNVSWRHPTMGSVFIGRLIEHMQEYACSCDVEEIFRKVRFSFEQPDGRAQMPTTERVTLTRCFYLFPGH
Experiment: Inhibition constant against interleukin-1-beta converting enzyme

SMILES | K obs / 1 [M⁻¹ s⁻¹]
CC(C)[C@H](NC(=O)OCc1ccccc1)C(=O)N[C@@H](C)C(=O)N(C)[C@@H](CC(=O)O)C(=O)COc1cc(C(F)(F)F)nn1-c1ccccc1 | < 300
CC(C)[C@H](NC(=O)OCc1ccccc1)C(=O)N(C)[C@@H](C)C(=O)N[C@@H](CC(=O)O)C(=O)COc1cc(C(F)(F)F)nn1-c1ccccc1 | 233000
CC(C)[C@H](NC(=O)OCc1ccccc1)C(=O)N1CC[C@H]1C(=O)N[C@@H](CC(=O)O)C(=O)COc1cc(C(F)(F)F)nn1-c1ccccc1 | 46200
O=C(O)C[C@H](NC(=O)OCc1ccccc1)C(=O)COc1cc(C(F)(F)F)nn1-c1ccccc1 | 11000
CC(C)[C@H](NC(=O)OCc1ccccc1)C(=O)N[C@@H](CC(=O)O)C(=O)COc1cc(C(F)(F)F)nn1-c1ccccc1 | 20000
CC(C)[C@H](NC(=O)OCc1ccccc1)C(=O)N1CCC[C@H]1C(=O)N[C@@H](CC(=O)O)C(=O)COc1cc(C(F)(F)F)nn1-c1ccccc1 | 116000
CC(C)[C@@H](C(=O)N[C@@H](C)C(=O)N[C@@H](CC(=O)O)C(=O)COc1cc(C(F)(F)F)nn1-c1ccccc1)N(C)C(=O)OCc1ccccc1 | 8600

From ChEMBL document CHEMBL1127733, “Aspartyl alpha-((1-phenyl-3-(trifluoromethyl)-pyrazol-5-yl)oxy)methyl ketones as interleukin-1 beta converting enzyme inhibitors. Significance of the P1 and P3 amido nitrogens for enzyme-peptide inhibitor binding” (J Med Chem, 1994)
